The results in this text go back to patent US8637507B2, “Bicyclic compounds as inhibitors of diacylglycerol acyltransferase” (Merck Sharp & Dohme Corp., priority 2009, dated 2014).

The target of the experiment is human DGAT1 enzyme (Homo sapiens (Human), UniProt O75907). Particulars: read-out: hDGAT1 IC50; human DGAT1 expressed in Sf9 insect cells, microsomes; 2 hours at room temperature.

Molecules are shown by their SMILES.

Sequence of human DGAT1 enzyme (O75907 whole entry): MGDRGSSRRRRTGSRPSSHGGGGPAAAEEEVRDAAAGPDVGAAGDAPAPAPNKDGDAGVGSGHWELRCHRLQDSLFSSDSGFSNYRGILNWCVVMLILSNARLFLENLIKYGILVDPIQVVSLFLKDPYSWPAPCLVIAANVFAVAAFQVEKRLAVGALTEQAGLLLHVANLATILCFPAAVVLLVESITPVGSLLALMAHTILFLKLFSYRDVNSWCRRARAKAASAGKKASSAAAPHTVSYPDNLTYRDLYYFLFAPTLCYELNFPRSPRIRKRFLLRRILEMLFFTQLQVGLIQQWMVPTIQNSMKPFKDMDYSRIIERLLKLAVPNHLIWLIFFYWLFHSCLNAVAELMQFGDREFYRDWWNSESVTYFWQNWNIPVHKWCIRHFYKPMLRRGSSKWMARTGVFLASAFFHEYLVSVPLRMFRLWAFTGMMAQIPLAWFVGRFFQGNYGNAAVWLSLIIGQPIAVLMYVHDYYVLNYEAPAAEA
Experimental: The in vitro assay to identify DGAT1 inhibitors uses human DGAT1 enzyme expressed in Sf9 insect cells prepared as microsomes. The reaction was initiated by the addition of the combined substrates 1,2-dioleoyl-sn-glycerol and [^14C]-palmitoyl-CoA and incubated with test compounds and microsomal membranes for 2 hours at room temperature. The assay was stopped by adding 0.5 mg wheat germ agglutinin beads in assay buffer with 1% Brij-35 and 1% 3-cholamidopropyldimethyl-ammonio-1-propane sulfonate. Plates were sealed with TopSeal and incubated for 18 hours to allow the radioactive triglyceride product to come into proximity with the bead. Plates were read on a TopCount instrument.
Percent inhibition was calculated as the percent of (test compound inhibition minus non-specific binding) relative to (total binding minus non-specific binding). IC50 values were determined by curve fitting the data to a Sigmoidal dose-response in GraphPad Prism utilizing the following equation: Y=A+(B−A)/(1+10^((Log IC50−X))), where A and B are the bottom and top of the curve (highest and lowest inhibition), respectively, and X is the logarithm of concentration.

On to `Cc1cc(C(=O)Nc2ccccc2)c2ccc(-c3ccc(OCC(C)(C)C(=O)O)nc3)cc2n1` [Example B-17, 2,2-dimethyl-3-(5-(2-methyl-4-(phenylcarbamoyl)quinolin-7-yl)pyridin-2-yloxy)propanoic acid], for which the IC50 (in general, the concentration at which inhibition is half-maximal) stood at 0.275 µM.
